Assay: xn = mol fraction of the nth substance listed

O=C[O-].OCC[NH2+]CCO + O
100 kPa
Conditions | viscosity [mPa·s]
293.15 K, x2 = 0.8484 | 8.19
303.15 K, x2 = 0.4068 | 75.66
303.15 K, x2 = 0.4845 | 65.08
303.15 K, x2 = 0.7816 | 11.05
303.15 K, x2 = 0.8484 | 5.927
313.15 K, x2 = 0.2013 | 99.28
313.15 K, x2 = 0.2622 | 77.5
313.15 K, x2 = 0.7816 | 7.98
323.15 K, x2 = 0.2013 | 61.45
323.15 K, x2 = 0.7816 | 6.008
323.15 K, x2 = 0.9708 | 0.9306

O=S(=O)([O-])NC1CCCCC1.[Na+] + O
viscosity [mPa·s], 101 kPa
Conditions | x1 = 0.0007834 | x1 = 0.001319 | x1 = 0.001692 | x1 = 0.002246 | x1 = 0.002766 | x1 = 0.003045 | x1 = 0.00349 | x1 = 0.004121 | x1 = 0.00513 | x1 = 0.005949
293.15 K | 1.028 | 1.045 | 1.058 | 1.078 | 1.096 | 1.107 | 1.124 | 1.147 | 1.184 | 1.217
298.15 K | 0.9131 | 0.9289 | 0.9398 | 0.9564 | 0.973 | 0.9813 | 0.9953 | 1.015 | 1.047 | 1.075
303.15 K | 0.8176 | 0.8313 | 0.8413 | 0.8553 | 0.8697 | 0.8768 | 0.889 | 0.9061 | 0.9337 | 0.9581
313.15 K | 0.6686 | 0.6797 | 0.6875 | 0.6983 | 0.7094 | 0.7149 | 0.7243 | 0.7375 | 0.7588 | 0.7774
323.15 K | 0.5593 | 0.568 | 0.5741 | 0.5829 | 0.5918 | 0.5961 | 0.6036 | 0.6142 | 0.6312 | 0.6458

O=[N+]([O-])[O-].O=[N+]([O-])[O-].O=[N+]([O-])[O-].[Nd+3] + O
viscosity [mPa·s], 101.3 kPa
Conditions | x1 = 0.009316 | x1 = 0.01807 | x1 = 0.02726 | x1 = 0.03634 | x1 = 0.05266 | x1 = 0.06916 | x1 = 0.07185
293.15 K | 1.299 | 1.721 | 2.369 | 3.383 | 6.774 | 14.9 | 17.16
298.15 K | 1.159 | 1.53 | 2.106 | 2.967 | 5.8 | 12.34 | 14.09
308.15 K | 0.9433 | 1.242 | 1.696 | 2.353 | 4.38 | 8.715 | 9.848

Reference: the CheMixHub viscosity set
